Test systems include 786-0; BT-549; COLO 205; DU-145; EKVX; HL-60; Hs-578T; K562; Malme-3M; NCI-H226; NCI-H23; NCI/ADR-RES; SNB-19; TK-10; UO-31; CCRF-CEM; NCI-H460; SK-OV-3; SNB-75; T47D.
Holding throughout (assay): NCI tumour cell line growth inhibition, 48 h

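96-well plates; 48 h exposure; 5 concentrations. Endpoints by linear interpolation between flanking doses. Not reached: highest tested concentration assigned. GI50 marks 50% less growth.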 Activity calls are given as the source filed them. No stated cut-off is given here; in the data, active = GI50 up to about 1.1 µM and inactive = higher. Some results are limits rather than exact numbers.

In the case of `O=C1NC(Cc2c[nH]c3ccccc23)C(=O)N2C(C3CCCCC3)c3[nH]c4ccccc4c3C[C@@H]12` (stereo partly specified), the GI50 is 11.4 µM (inactive) in the assay on 786-0; 14.9 µM (inactive) in the assay on BT-549; 17.2 µM (inactive) in the assay with COLO 205; 24.3 µM (inactive) with DU-145; 16 µM (inactive) in the assay on EKVX; 13.4 µM (inactive) with HL-60. Moreover, the GI50 in the assay on Hs-578T is 2.18 µM (inactive); in the assay on K562, 10.8 µM (inactive); in the assay on Malme-3M it was 13.1 µM (inactive); in the assay on NCI-H226, 24.2 µM (inactive); in the assay on NCI-H23 it was 16.8 µM (inactive); in the assay with NCI/ADR-RES, 11.7 µM (inactive). Besides, the values for the GI50 with SNB-19, in the assay with TK-10 and in the assay on UO-31 were 22.3 µM (inactive), 8.15 µM (inactive) and 14.1 µM (inactive), respectively.

Regarding `CN(C)C(=O)Nc1cc2c3c(c1)CCCN3CCC2`, the GI50 in the assay on 786-0, in the assay with CCRF-CEM, with COLO 205, in the assay on DU-145, in the assay on EKVX and in the assay on HL-60 was > 10 µM (inactive) throughout. In addition, the GI50 with Hs-578T, in the assay on K562, in the assay on Malme-3M, in the assay with NCI-H226, with NCI-H23 and in the assay on NCI-H460 was > 10 µM (inactive) throughout. Besides, the GI50 in the assay on NCI/ADR-RES, in the assay with SK-OV-3, in the assay on SNB-19, in the assay on SNB-75, in the assay with T47D and with TK-10 was > 10 µM (inactive) in each case. For the same compound, the GI50 in the assay with UO-31 is > 10 µM (inactive).

As to `Cn1c(=O)c2[nH]c(Nc3cccc(Cl)c3)nc2n(C)c1=O`, the GI50 is 4.4 µM (inactive) in the assay with 786-0; 3.96 µM (inactive) with CCRF-CEM; 3.6 µM (inactive) in the assay on COLO 205; 4.76 µM (inactive) in the assay on DU-145; 4.16 µM (inactive) in the assay with EKVX; 3.31 µM (inactive) in the assay on HL-60. For the same compound, the GI50 in the assay with K562 is 5.4 µM (inactive); in the assay on Malme-3M it was 3.65 µM (inactive); in the assay with NCI-H23, 2.63 µM (inactive); with SK-OV-3 it was 6.17 µM (inactive); with SNB-75 it was 4.86 µM (inactive); with T47D it was 2.86 µM (inactive). The GI50 with TK-10 was 8.91 µM (inactive).

Turning to `CC1CNC(NS(=O)(=O)c2cc(C(=O)Nc3ccccc3)c(Cl)cc2S)=NN1` (stereo unspecified), the GI50 was 92.3 µM (inactive) in the assay on 786-0; 97.3 µM (inactive) in the assay on BT-549; 32.8 µM (inactive) with CCRF-CEM; 48.6 µM (inactive) in the assay on COLO 205; > 100 µM (inactive) in the assay on DU-145; > 100 µM (inactive) in the assay with EKVX. Further, the GI50 in the assay with HL-60 was 66.2 µM (inactive); in the assay on K562, 35.2 µM (inactive); in the assay on Malme-3M, 31.2 µM (inactive); in the assay with NCI-H226, 44.7 µM (inactive); in the assay on NCI-H23, 44.1 µM (inactive); in the assay on NCI-H460 it was 63 µM (inactive). Also, the GI50 with NCI/ADR-RES was > 100 µM (inactive); in the assay with SK-OV-3, 81.5 µM (inactive); in the assay with SNB-19, 57 µM (inactive); with TK-10, > 100 µM (inactive); in the assay on UO-31 it was 77.8 µM (inactive).

Regarding `CCCCn1c2c(n(CCCC)c1=[Se])-c1c(n(CCCC)c(=[Se])n1CCCC)S[Se][Se]S2`, the GI50 was 29.4 µM (inactive) in the assay with 786-0; 27.7 µM (inactive) in the assay on BT-549; 3.78 µM (inactive) in the assay with CCRF-CEM; 8.65 µM (inactive) with COLO 205; 25 µM (inactive) in the assay on DU-145; 38.5 µM (inactive) in the assay on EKVX. The GI50 in the assay with Hs-578T was 18.7 µM (inactive); in the assay with K562, 9.84 µM (inactive); with Malme-3M, 3.52 µM (inactive); in the assay on NCI-H226, 6.52 µM (inactive); in the assay on NCI-H23 it was 25.1 µM (inactive); in the assay on NCI-H460, 7.6 µM (inactive). Further, the GI50 is 19.5 µM (inactive) in the assay with NCI/ADR-RES; 24.5 µM (inactive) with SK-OV-3; 17 µM (inactive) with SNB-19; 20.6 µM (inactive) in the assay on SNB-75; 5.4 µM (inactive) in the assay on TK-10; 14.1 µM (inactive) in the assay with UO-31.

Take `COc1ccc(-c2c(C#N)c(-c3ccc(C)cc3)n(NS(=O)(=O)c3ccccc3)c(=O)c2C#N)cc1`: the GI50 in the assay with 786-0 was 51.5 µM (inactive); in the assay with BT-549 it was 25.2 µM (inactive); in the assay on CCRF-CEM, 23 µM (inactive); in the assay with COLO 205, > 100 µM (inactive); in the assay with EKVX, 53.5 µM (inactive); with HL-60, 19 µM (inactive). The GI50 with Hs-578T was 33.7 µM (inactive); with K562 it was 60.4 µM (inactive); in the assay on Malme-3M it was > 100 µM (inactive); in the assay with NCI-H226, > 100 µM (inactive); in the assay with NCI-H460, 45.8 µM (inactive); in the assay with NCI/ADR-RES, 41.5 µM (inactive). Also, the GI50 with SK-OV-3 was 84.3 µM (inactive); in the assay on SNB-19, 58.5 µM (inactive); in the assay on SNB-75, > 100 µM (inactive); in the assay with TK-10, 79.8 µM (inactive).

Take `CC(Cn1c2c(c3cc(O)ccc31)CCc1ccc(O)cc1-2)N(C)C` (stereo unspecified): the GI50 was 15.5 µM (inactive) in the assay on 786-0; 16.3 µM (inactive) with BT-549; 53.3 µM (inactive) with CCRF-CEM; 19.8 µM (inactive) in the assay on EKVX; 64.1 µM (inactive) with HL-60; 17.1 µM (inactive) in the assay with Hs-578T. The GI50 in the assay with K562 was 34.5 µM (inactive); with Malme-3M, 14.5 µM (inactive); with NCI-H226, 14.4 µM (inactive); in the assay on NCI-H23 it was 19.6 µM (inactive); with NCI-H460, 15.1 µM (inactive); with NCI/ADR-RES, 20.2 µM (inactive). In addition, the GI50 in the assay on SK-OV-3 was 25.2 µM (inactive); with SNB-19, 17.8 µM (inactive); in the assay on SNB-75 it was 15.8 µM (inactive); in the assay on TK-10 it was 18.7 µM (inactive); with UO-31, 13.2 µM (inactive).

With `COc1ccc2c(c1)c1c3c(ccc4ncn2c43)N(CCN(C)C)CCN=1`, the GI50 with 786-0 is 0.19 µM (active); in the assay on CCRF-CEM it was 0.127 µM (active); with COLO 205, 0.356 µM (active); in the assay on DU-145 it was 0.942 µM (active); in the assay with EKVX, 0.586 µM (active); in the assay on HL-60, 0.333 µM (active). The GI50 in the assay with Hs-578T was 1.06 µM (active); with K562 it was 0.0488 µM (active); with Malme-3M, 1.2 µM (inactive); in the assay with NCI-H226, 1.14 µM (inactive); in the assay on NCI-H23 it was 0.968 µM (active); in the assay with NCI-H460, 0.176 µM (active). In addition, the GI50 in the assay with NCI/ADR-RES was 0.438 µM (active); with SK-OV-3 it was 0.908 µM (active); in the assay with SNB-19, 0.405 µM (active); in the assay on SNB-75, 0.764 µM (active); in the assay with T47D it was 1.52 µM (inactive); in the assay with TK-10, 1.49 µM (inactive). Moreover, in the assay with UO-31, the GI50 was 0.404 µM (active).

As for `O=C1OCCC12CN(Cc1ccccc1)N=N2` (stereo unspecified), the GI50 is > 100 µM (inactive) in the assay on 786-0; > 100 µM (inactive) in the assay on COLO 205; 87.7 µM (inactive) with DU-145; > 100 µM (inactive) in the assay with K562; 12.1 µM (inactive) in the assay on Malme-3M; > 100 µM (inactive) with NCI-H23. Also, the GI50 in the assay on NCI-H460, with NCI/ADR-RES, in the assay with SK-OV-3, with SNB-19, with T47D and in the assay with TK-10 was > 100 µM (inactive) in each case. In the assay with UO-31, the GI50 was > 100 µM (inactive).

Regarding `CNC(=O)NCCN1CC2CCC(CC2)C1`, the GI50 with 786-0, with CCRF-CEM, in the assay on COLO 205, in the assay with DU-145, in the assay with EKVX and in the assay on HL-60 was > 10 µM (inactive) each time. Further, the GI50 with Hs-578T, in the assay on K562, in the assay with Malme-3M, with NCI-H226, in the assay on NCI-H23 and with NCI-H460 was > 10 µM (inactive) in each case. For the same compound, the GI50 with NCI/ADR-RES, with SK-OV-3, in the assay on SNB-19, with SNB-75, in the assay on T47D and in the assay with TK-10 was > 10 µM (inactive) throughout. Also, the GI50 in the assay on UO-31 is > 10 µM (inactive).

For `O=C1c2cc(Cc3ccccc3)c(=O)c(Cc3ccccc3)cc2C(=O)c2cc(Cc3ccccc3)c(=O)c(Cc3ccccc3)cc21`, the GI50 in the assay with 786-0 is > 100 µM (inactive); in the assay on BT-549 it was > 100 µM (inactive); in the assay on CCRF-CEM, 74.5 µM (inactive); with COLO 205, > 100 µM (inactive); in the assay with DU-145 it was > 100 µM (inactive); with EKVX, > 100 µM (inactive). In addition, the GI50 was > 100 µM (inactive) with HL-60; > 100 µM (inactive) in the assay with Hs-578T; 89.9 µM (inactive) with K562; > 100 µM (inactive) in the assay on Malme-3M; > 100 µM (inactive) with NCI-H226; > 100 µM (inactive) in the assay on NCI-H23. Also, the GI50 in the assay with NCI-H460, in the assay on NCI/ADR-RES, with SNB-19, in the assay on SNB-75, in the assay on TK-10 and in the assay on UO-31 was > 100 µM (inactive) in each case.

For `COC(=S)OC1CC(n2cnc3c(=O)[nH]cnc32)OC1CO[Si](C)(C)C(C)(C)C` (stereo unspecified), the GI50 with 786-0, with CCRF-CEM, in the assay with COLO 205, with DU-145, in the assay with EKVX and in the assay with HL-60 was > 100 µM (inactive) throughout. The GI50 in the assay on Hs-578T, in the assay on K562, in the assay on Malme-3M, in the assay with NCI-H226, in the assay on NCI-H23 and in the assay with NCI-H460 was > 100 µM (inactive) throughout. Further, the GI50 in the assay on NCI/ADR-RES, in the assay on SK-OV-3, in the assay with SNB-19, in the assay on SNB-75 and with TK-10 was > 100 µM (inactive) in each case.

Source of the values: ChEMBL document CHEMBL1201862, “PubChem BioAssay data set” (2004).
